{"source": "patent US20190336537A1", "about": "“GENERATING ATRIAL AND VENTRICULAR CARDIOMYOCYTE LINEAGES FROM HUMAN PLURIPOTENT STEM CELLS” (UNIVERSITY HEALTH NETWORK, priority 2016, published 2019)", "test_system": "HES3 NKX2-5:GFP hESC-derived mesoderm", "assay": "Specification of mesoderm populations to an atrial fate by ROH or RA (day 20 flow cytometry and qRT-PCR)", "format": "cell-based, human", "description": "To determine if the ALDH^+ cells can synthesize RA, the ALDH^+PDGFRalpha^+ and ALDH^− PDGFRalpha^+ fractions were isolated from the day 4 3B/2A-induced population, and the cells were cultured as aggregates in retinol (ROH), RA, or DMSO (control) for 24 hr (FIGS. 3A and 3B). ALDH1A2 expression segregated to the ALDH^+ fraction, confirming the validity of aldefluor-based sorting strategy for isolating RALDH2-expressing cells (FIG. 3C).\nFor cardiac differentiation, we used a modified version of our embryoid body (EB)-based protocol (Kattman et al., 2011). hPSC populations at 80%-90% confluence were dissociated into single cells (TrypLE, ThermoFisher) and re-aggregated to form EBs in StemPro-34 media (ThermoFisher) containing penicillin/streptomycin (1%, ThermoFisher), L-glutamine (2 mM, ThermoFisher), trans-ferrin (150 μg/ml, ROCHE), ascorbic acid (50 μg/ml, Sigma), and monothioglycerol (50 μg/ml, Sigma), ROCK inhibitor Y-27632 (10 μM, TOCRIS) and rhBMP4 (1 ng/ml, R&D) for 18 h on an orbital shaker. At day 1, the EBs were transferred to mesoderm induction media consisting of StemPro-34 with above supplements (-ROCK inhibitor Y-27632) and rhBMP4, rhActivinA (R&D) and rhbFGF (5 ng/ml, R&D) at the indicated concentrations. At day 3, the EBs were harvested, washed with IMDM and transferred to cardiac mesoderm specification media consisting of StemPro-34, the Wnt inhibitor IWP2 (1 μM, TOCRIS) and rhVEGF (10 ng/mL, R&D). At day 5, the EBs were transferred to Stem Pro-34 with rhVEGF (5 ng/ml) for another 7 days and then to Stem Pro-34 media without additional cytokines for further 8 days. At day 20, HES3-NKX2-5gfp/w-derived cardiomyocytes were analyzed and isolated based on the expression of NKX2-5:GFP and SIRPa and a lack of CD90. Cardiomyocytes generated from non-transgenic hPSC lines were analyzed and isolated as SIRPa+CD90− populations. Media was changed every 3 days. Cultures were incubated in a low oxygen environment (5% CO2, 5% O2, 90% N2) for first 12 days and a normoxic environment (5% CO2) for the following 8 days in total of 20 days. The EBs were cultured in ultra-low attachment 6-well dishes (Corning) throughout the differentiation for maintaining suspension cultures.\nFollowing optimization, either ATRA (0.5 μM, Sigma) or retinol (2 μM, Sigma) was included in the cardiac mesoderm specification media from days 3-5 for the generation of atrial cardiomyocytes.\nDay 2-6 EBs were dissociated with TrypLE for 2-4 min at room temperature (RT). Day 20 EBs were dissociated by incubation in Collagenase type 2 (0.5 mg/ml, Worthington) in HANKs buffer overnight at RT followed by TrypLE treatment as described above. The following antibodies were used for staining: anti-PDGFRa-PE (R&D Systems, 3:50), anti-CD235a-APC (BD PharMingen, 1:100), antiSIRPa-PeCy7 (Biolegend, 1:1000), anti-CD90-APC (BD PharMingen, 1:1000), anticardiac isoform of CTNT (ThermoFisher Scientific, 1:2000), or anti-myosin light chain 2 (Abcam, 1:1000). For unconjugated primary antibodies, the following secondary antibodies were used for detection: goat anti-mouse IgG-APC (BD Pharmigen, 1:250), or donkey anti-rabbit IgG-PE (Jackson ImmunoResearch, 1:250). Detailed antibody information is described in Table 2.\nThe Aldefluor™ assay (STEMCELL Technologies) was performed according to the instruction provided by the manufacturer. Briefly, day 2-6 EBs were dissociated as described above. […] Stained cells were analyzed as described above. […]"}
{"smiles": "CC1=C(/C=C/C(C)=C/C=C/C(C)=C/C(=O)O)C(C)(C)CCC1", "note": "[RA, all trans retinoic acid]", "values": [{"measurement": "atrial specification (MLC2V+, IRX4, KCNJ3, NR2F2)", "setting": "5B/12A-induced EBs, treated days 3-5", "value": "able to induce an atrial-like cardiomyocyte phenotype"}, {"measurement": "atrial specification (MLC2V+ frequency, IRX4, KCNJ3)", "setting": "ALDH+PDGFRalpha+ fraction, day 4, 3B/2A induced, 24 hr treatment", "value": "similar"}]}
